“And” between values parts separate entries of the source, which are not always exact repeats. Equal values may be shown once. Read-outs that look alike come from different tables or passages of the source.
Columns and labels:
[1] = tested on: cyclin K–eGFP degradation reporter; test: Cyclin K reporter stability analysis (dual-color cyclin K–eGFP reporter); format: cell-based, human; settings: Supplementary Table 2; HEK293T cycK-eGFP reporter, 5 h; read-out: Cellular assays DC50
Procedure: HEK293T–Cas9 cells expressing the cyclin K–eGFP degradation reporter were resuspended at 1 × 10^6 ml^−1 and 50 µl of cell suspension was seeded in non-cell-culture-treated 384-well plates. Shortly after, cells were treated with drug or DMSO for 5 h. […] The fluorescent signal was quantified by flow cytometry (LSRFortessa flow cytometer, BD Biosciences). Using FlowJo (flow cytometry analysis software, BD Biosciences), the geometric mean of the eGFP and mCherry fluorescent signal for round and mCherry-positive cells was calculated. The ratio of eGFP to mCherry was normalized to the average of three DMSO-treated controls.

CDK12–cyclin K and DDB1 = target: T1, CDK12–cyclin K and DDB1 (Homo sapiens, UniProt Q16531+Q9NYV4, K965R); test: TR-FRET ternary complex formation assay (compound titration); format: binding
T1 construct: His6–CDK12 (a.a. 713–1,052); full-length or beta-propeller B domain deletion (ΔBPB: a.a. 396–705 deleted) constructs of His6–DDB1ΔBPB, StrepII–Avi–DDB1, or His6–Spy–DDB1; made in house; host or cells: Trichoplusia ni High Five insect cells (baculovirus)
T1 sequence (Q9NYV4 713-1052 K965R): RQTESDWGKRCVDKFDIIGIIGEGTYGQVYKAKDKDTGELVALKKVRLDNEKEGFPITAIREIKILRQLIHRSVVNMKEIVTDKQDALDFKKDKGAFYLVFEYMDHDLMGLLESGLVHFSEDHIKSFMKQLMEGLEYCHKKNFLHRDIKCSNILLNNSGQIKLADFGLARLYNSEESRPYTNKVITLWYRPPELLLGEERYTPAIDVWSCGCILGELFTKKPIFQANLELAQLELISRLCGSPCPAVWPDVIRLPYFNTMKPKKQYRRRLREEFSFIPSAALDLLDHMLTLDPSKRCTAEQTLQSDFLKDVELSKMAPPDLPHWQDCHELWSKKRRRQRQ
T1 sequence (O75909 1-267 partner): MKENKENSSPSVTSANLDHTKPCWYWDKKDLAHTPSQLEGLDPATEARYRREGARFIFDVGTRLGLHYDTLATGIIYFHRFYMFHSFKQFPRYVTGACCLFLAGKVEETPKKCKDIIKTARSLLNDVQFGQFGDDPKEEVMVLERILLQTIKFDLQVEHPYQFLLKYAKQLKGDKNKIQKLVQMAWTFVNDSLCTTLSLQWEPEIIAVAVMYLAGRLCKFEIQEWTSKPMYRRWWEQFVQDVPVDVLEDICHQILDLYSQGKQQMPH
T1 sequence (Q16531 whole entry): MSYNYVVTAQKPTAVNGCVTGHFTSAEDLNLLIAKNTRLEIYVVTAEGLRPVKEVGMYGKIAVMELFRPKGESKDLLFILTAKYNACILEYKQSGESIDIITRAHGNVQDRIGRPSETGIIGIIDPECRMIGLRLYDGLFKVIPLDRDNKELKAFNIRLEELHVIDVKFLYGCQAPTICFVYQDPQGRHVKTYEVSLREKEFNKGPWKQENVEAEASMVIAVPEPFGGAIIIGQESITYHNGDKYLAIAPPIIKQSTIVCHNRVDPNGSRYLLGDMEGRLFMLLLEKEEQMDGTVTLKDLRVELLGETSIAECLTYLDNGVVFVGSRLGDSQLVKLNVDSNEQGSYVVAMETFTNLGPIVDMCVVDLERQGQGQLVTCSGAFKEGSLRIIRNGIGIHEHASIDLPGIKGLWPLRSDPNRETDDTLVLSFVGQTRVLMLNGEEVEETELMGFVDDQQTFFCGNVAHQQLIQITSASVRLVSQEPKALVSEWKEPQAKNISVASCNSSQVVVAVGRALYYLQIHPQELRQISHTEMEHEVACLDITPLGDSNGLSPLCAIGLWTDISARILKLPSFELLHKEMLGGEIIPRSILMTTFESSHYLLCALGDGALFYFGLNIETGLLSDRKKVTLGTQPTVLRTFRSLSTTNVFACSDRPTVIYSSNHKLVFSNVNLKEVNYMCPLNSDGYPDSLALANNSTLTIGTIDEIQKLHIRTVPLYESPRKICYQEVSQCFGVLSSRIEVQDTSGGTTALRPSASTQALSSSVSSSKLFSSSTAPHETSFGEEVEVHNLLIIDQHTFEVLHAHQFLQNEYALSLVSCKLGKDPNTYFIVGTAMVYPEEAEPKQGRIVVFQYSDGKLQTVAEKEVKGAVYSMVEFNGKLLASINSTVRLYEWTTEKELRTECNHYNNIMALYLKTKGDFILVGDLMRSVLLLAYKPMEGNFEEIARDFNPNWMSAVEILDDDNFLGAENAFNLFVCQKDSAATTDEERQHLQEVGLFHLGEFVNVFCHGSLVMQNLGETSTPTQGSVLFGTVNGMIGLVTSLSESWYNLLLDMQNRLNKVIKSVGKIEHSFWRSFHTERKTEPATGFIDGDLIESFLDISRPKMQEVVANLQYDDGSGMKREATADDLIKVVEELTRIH
Excerpt: A 70 μs delay was employed to reduce background fluorescence. The TR-FRET signal was obtained through calculating the ratio of 520 nm to 490 nm fluorescence, and Prism 9 (GraphPad) was used for further data analysis.

HEK293T cells = test: Drug sensitivity assay (CellTiter-Glo viability) with or without MLN4924 pretreatment; format: cell-based, human; settings: Supplementary Table 2; for EC50: Homo sapiens, HEK-293T, HEK293T viability, 72 h, compound alone, read-out: Cellular assays EC50; for Toxicity rescue: MLN4924-mediated cytotoxicity rescue, 10 µM used where n.d.
Procedure: HEK293T–Cas9 cells were resuspended at 0.15 × 10^6 ml^−1 treated with DMSO or 100 nM MLN4924 and plated on 384-well plates. After 2 h, the indicated drugs were dispensed with a D300 digital dispenser (Tecan). After 3 days of drug exposure, cell viability was assessed using the CellTiter-Glo luminescent assay (Promega, G7572) on an CLARIOstar Plus, MARS 3.4 (BMG LabTech). Cell viabilities were calculated relative to DMSO controls.

CDK12–cyclin K = CDK12–cyclin K (Homo sapiens, UniProt Q9NYV4); test: Lanthascreen kinase binding assay, CDK12; settings: for Lanthascreen raw signal, sheet CDK12: series r1, duplicates
Chain of CDK12–cyclin K (Q9NYV4 713-1052): as the sequence (Q9NYV4 713-1052 K965R) above, with R253K counted along it
Chain of CDK12–cyclin K (O75909 1-267 partner limits assumed): as the sequence (O75909 1-267 partner) above
Procedure: (§1) Lanthascreen experiments were performed using commercially available reagents (Thermo Fisher) and according to the manufacturer’s instructions.

CDK2–cyclin A = target: T2, CDK2–cyclin A (Homo sapiens, UniProt P24941); test: Lanthascreen kinase binding assay, CDK2; settings: for Lanthascreen signal, sheet CDK2: raw replicates, experiment r1-r11
T2 construct: purchased Thermo Fisher
Procedure: as §1

CDK9–cyclin T = target: T3, CDK9–cyclin T (Homo sapiens, UniProt P50750); test: Lanthascreen kinase binding assay, CDK9; settings: for Lanthascreen TR-FRET signal (raw ratio), sheet CDK9: first titration set (r1), duplicates
T3 construct: purchased Thermo Fisher
T3 sequence (P50750 whole entry): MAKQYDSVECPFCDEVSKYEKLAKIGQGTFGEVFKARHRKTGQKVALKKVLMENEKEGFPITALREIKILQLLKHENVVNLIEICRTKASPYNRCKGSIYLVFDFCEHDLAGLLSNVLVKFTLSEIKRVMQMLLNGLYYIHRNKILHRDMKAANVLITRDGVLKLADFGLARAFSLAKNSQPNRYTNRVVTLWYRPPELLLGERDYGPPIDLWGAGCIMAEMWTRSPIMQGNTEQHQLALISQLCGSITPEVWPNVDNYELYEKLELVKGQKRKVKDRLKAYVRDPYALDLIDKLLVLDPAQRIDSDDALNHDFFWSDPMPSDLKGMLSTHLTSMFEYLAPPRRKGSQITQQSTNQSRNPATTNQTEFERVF
T3 sequence (O60563 whole entry partner): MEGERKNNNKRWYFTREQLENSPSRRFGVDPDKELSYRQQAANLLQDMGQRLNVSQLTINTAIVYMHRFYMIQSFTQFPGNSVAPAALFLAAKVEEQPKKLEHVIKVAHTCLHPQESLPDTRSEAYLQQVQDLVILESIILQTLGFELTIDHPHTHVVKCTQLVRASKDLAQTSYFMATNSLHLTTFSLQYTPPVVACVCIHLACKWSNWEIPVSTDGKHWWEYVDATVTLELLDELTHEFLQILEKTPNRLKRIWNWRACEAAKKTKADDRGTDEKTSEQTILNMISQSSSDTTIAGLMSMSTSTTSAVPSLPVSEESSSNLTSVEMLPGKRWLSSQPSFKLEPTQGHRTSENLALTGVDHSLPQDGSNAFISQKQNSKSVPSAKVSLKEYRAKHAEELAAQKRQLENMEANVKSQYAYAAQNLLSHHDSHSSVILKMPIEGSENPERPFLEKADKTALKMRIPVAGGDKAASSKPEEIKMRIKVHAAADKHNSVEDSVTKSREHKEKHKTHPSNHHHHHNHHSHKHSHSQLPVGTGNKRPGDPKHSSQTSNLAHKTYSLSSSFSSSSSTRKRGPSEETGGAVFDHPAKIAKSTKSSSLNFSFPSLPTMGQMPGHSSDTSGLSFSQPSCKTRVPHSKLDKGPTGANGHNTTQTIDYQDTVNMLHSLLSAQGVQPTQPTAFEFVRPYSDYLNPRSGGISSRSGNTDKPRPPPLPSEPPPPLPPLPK
Procedure: as §1

Compound: CCc1ccc2nc(Nc3cc(Cc4ccccc4)nc(N[C@H]4CC[C@H](O)CC4)n3)sc2c1 [GSK2250665A, reference compound]
- DC50 [1]: > 10000 nM
- TR-FRET signal at compound concentration 4.68 nM (CDK12–cyclin K and DDB1; compound concentration 4.68 nM, raw replicate titration data): 0.2092 and 0.2185
- TR-FRET signal at compound concentration 21.6 nM (CDK12–cyclin K and DDB1; compound concentration 21.6 nM, raw replicate titration data): 0.2003 and 0.2155
- TR-FRET signal at compound concentration 36 nM (CDK12–cyclin K and DDB1; compound concentration 36 nM, raw replicate titration data): 0.2049 and 0.2158
- TR-FRET signal at compound concentration 79.2001 nM (CDK12–cyclin K and DDB1; compound concentration 79.2001 nM, raw replicate titration data): 0.208 and 0.2231
- TR-FRET signal at compound concentration 158.4 nM (CDK12–cyclin K and DDB1; compound concentration 158.4 nM, raw replicate titration data): 0.2009 and 0.2135
- TR-FRET signal at compound concentration 309.6 nM (CDK12–cyclin K and DDB1; compound concentration 309.6 nM, raw replicate titration data): 0.2037 and 0.2058
- TR-FRET signal at compound concentration 626.401 nM (CDK12–cyclin K and DDB1; compound concentration 626.401 nM, raw replicate titration data): 0.2061 and 0.2177
- TR-FRET signal at compound concentration 1252.8 nM (CDK12–cyclin K and DDB1; compound concentration 1252.8 nM, raw replicate titration data): 0.2168 and 0.2226
- TR-FRET signal at compound concentration 2448 nM (CDK12–cyclin K and DDB1; compound concentration 2448 nM, raw replicate titration data): 0.212 and 0.232
- TR-FRET signal at compound concentration 9936.01 nM (CDK12–cyclin K and DDB1; compound concentration 9936.01 nM, raw replicate titration data): 0.2386 and 0.258
- TR-FRET signal at compound concentration 20016 nM (CDK12–cyclin K and DDB1; compound concentration 20016 nM, raw replicate titration data): 0.2819 and 0.2859

Compound: CC(C)(C)c1cnc(CSc2cnc(NC(=O)C3CCN(CC(=O)NCCOCCOCCOCCNc4cccc5c4C(=O)N(C4CCC(=O)NC4=O)C5=O)CC3)s2)o1 (centres unmarked) [THAL-SNS032]
- EC50 (HEK293T cells): 192 nM
- Toxicity rescue (HEK293T cells): 267%
- DC50 [1]: < 50 nM

Compound: CC(C)n1cnc2c(NCc3ccc(-c4ccccn4)cc3)nc(N3CCCC[C@H]3CCO)nc21 [DS70]
- EC50 (HEK293T cells): 265 nM
- Toxicity rescue (HEK293T cells): 30%
- CDK inhibitory selectivity, result in words (CDK12–cyclin K; Lanthascreen across CDK2/9/12): more pronounced pan-CDK engagement than CR8
- IC50 (CDK12–cyclin K; Supplementary Table 2, read-out: Lanthascreen IC50 [nM] CDK12): 1 nM
- Lanthascreen raw signal, sheet CDK12 (CDK12–cyclin K; compound 1.02544 nM): 0.01164 and 0.009885
- Lanthascreen raw signal, sheet CDK12 (CDK12–cyclin K; compound 3.15521 nM): 0.008674 and 0.009398
- Lanthascreen raw signal, sheet CDK12 (CDK12–cyclin K; compound 9.46563 nM): 0.007398 and 0.008542
- Lanthascreen raw signal, sheet CDK12 (CDK12–cyclin K; compound 31.5521 nM): 0.006709 and 0.008514
- Lanthascreen raw signal, sheet CDK12 (CDK12–cyclin K; compound 99.3891 nM): 0.005942 and 0.005764
- Lanthascreen raw signal, sheet CDK12 (CDK12–cyclin K; compound 315.521 nM): 0.005543 and 0.005183
- Lanthascreen raw signal, sheet CDK12 (CDK12–cyclin K; compound 3155.21 nM): 0.004896 and 0.004614
- Lanthascreen raw signal, sheet CDK12 (CDK12–cyclin K; compound 10002 nM): 0.00468 and 0.003424
- Lanthascreen signal, sheet CDK2 (CDK2–cyclin A; Compound 1.02544 nM): 0.009698 and 0.009238
- Lanthascreen signal, sheet CDK2 (CDK2–cyclin A; Compound 3.15521 nM): 0.009437 and 0.009539
- Lanthascreen signal, sheet CDK2 (CDK2–cyclin A; Compound 9.46563 nM): 0.008356 and 0.007045
- Lanthascreen signal, sheet CDK2 (CDK2–cyclin A; Compound 31.5521 nM): 0.006783 and 0.006389
- Lanthascreen signal, sheet CDK2 (CDK2–cyclin A; Compound 99.3891 nM): 0.003942 and 0.005883
- Lanthascreen signal, sheet CDK2 (CDK2–cyclin A; Compound 315.521 nM): 0.002917 and 0.004435
- Lanthascreen signal, sheet CDK2 (CDK2–cyclin A; Compound 3155.21 nM): 0.002797 and 0.003541
- Lanthascreen signal, sheet CDK2 (CDK2–cyclin A; Compound 10002 nM): 0.002382 and 0.002785
- IC50 (CDK2–cyclin A; Supplementary Table 2, read-out: Lanthascreen IC50 [nM] CDK2): 31 nM
- EC50 (CDK12–cyclin K and DDB1; Supplementary Table 2, read-out: TR-FRET EC50 TR-FRET): 17.6 nM
- TR-FRET signal at compound concentration 0.468 nM (CDK12–cyclin K and DDB1; raw replicate titration data): 0.3438 and 0.3184 and 0.1924 and 0.2024
- TR-FRET signal at compound concentration 0.468 nM (CDK12–cyclin K and DDB1; raw titration data): 0.3438 and 0.3184 and 0.1924 and 0.2024
- TR-FRET signal at compound concentration 2.16 nM (CDK12–cyclin K and DDB1; raw replicate titration data): 0.4192 and 0.3926 and 0.2807 and 0.3027
- TR-FRET signal at compound concentration 2.16 nM (CDK12–cyclin K and DDB1; raw titration data): 0.4192 and 0.3926 and 0.2807 and 0.3027
- TR-FRET signal at compound concentration 3.6 nM (CDK12–cyclin K and DDB1; raw replicate titration data): 0.579 and 0.5213 and 0.4737 and 0.5178
- TR-FRET signal at compound concentration 3.6 nM (CDK12–cyclin K and DDB1; raw titration data): 0.579 and 0.5213 and 0.4737 and 0.5178
- TR-FRET signal at compound concentration 7.92001 nM (CDK12–cyclin K and DDB1; raw replicate titration data): 0.9688 and 0.8489 and 0.8819 and 0.9925
- TR-FRET signal at compound concentration 7.92001 nM (CDK12–cyclin K and DDB1; raw titration data): 0.9688 and 0.8489 and 0.8819 and 0.9925
- TR-FRET signal at compound concentration 15.84 nM (CDK12–cyclin K and DDB1; raw replicate titration data): 1.662 and 1.49 and 2.462 and 1.9374
- TR-FRET signal at compound concentration 15.84 nM (CDK12–cyclin K and DDB1; raw titration data): 1.662 and 1.49 and 2.462 and 1.9374
- TR-FRET signal at compound concentration 30.96 nM (CDK12–cyclin K and DDB1; raw replicate titration data): 3.334 and 2.673 and 3.406 and 3.32
- TR-FRET signal at compound concentration 30.96 nM (CDK12–cyclin K and DDB1; raw titration data): 3.334 and 2.673 and 3.406 and 3.32
- TR-FRET signal at compound concentration 62.6401 nM (CDK12–cyclin K and DDB1; raw replicate titration data): 4.043 and 3.673 and 3.819 and 3.799
- TR-FRET signal at compound concentration 62.6401 nM (CDK12–cyclin K and DDB1; raw titration data): 4.043 and 3.673 and 3.819 and 3.799
- TR-FRET signal at compound concentration 125.28 nM (CDK12–cyclin K and DDB1; raw replicate titration data): 4.112 and 3.943 and 3.866 and 3.944
- TR-FRET signal at compound concentration 125.28 nM (CDK12–cyclin K and DDB1; raw titration data): 4.112 and 3.943 and 3.866 and 3.944
- TR-FRET signal at compound concentration 244.8 nM (CDK12–cyclin K and DDB1; raw replicate titration data): 4.2103 and 4.005 and 3.909 and 3.827
- TR-FRET signal at compound concentration 244.8 nM (CDK12–cyclin K and DDB1; raw titration data): 4.2103 and 4.005 and 3.909 and 3.827
- TR-FRET signal at compound concentration 993.601 nM (CDK12–cyclin K and DDB1; raw replicate titration data): 4.121 and 4.04 and 3.857 and 3.873
- TR-FRET signal at compound concentration 993.601 nM (CDK12–cyclin K and DDB1; raw titration data): 4.121 and 4.04 and 3.857 and 3.873
- TR-FRET signal at compound concentration 2001.6 nM (CDK12–cyclin K and DDB1; raw replicate titration data): 4.101 and 3.97 and 3.793 and 3.647
- TR-FRET signal at compound concentration 2001.6 nM (CDK12–cyclin K and DDB1; raw titration data): 4.101 and 3.97 and 3.793 and 3.647
- EC50 (CDK12–cyclin K and DDB1; in vitro complex formation, 50 nM CDK12–cyclin K, 100 nM DDB1, text and figures, read-out: TR-FRET EC50): 18 ± 1 nM
- IC50 (CDK9–cyclin T; Supplementary Table 2, read-out: Lanthascreen IC50 [nM] CDK9): 5 nM
- Lanthascreen TR-FRET signal (raw ratio), sheet CDK9 (CDK9–cyclin T; compound 1.02544 nM): 0.01641 and 0.01302
- Lanthascreen TR-FRET signal (raw ratio), sheet CDK9 (CDK9–cyclin T; compound 3.15521 nM): 0.01102 and 0.01312
- Lanthascreen TR-FRET signal (raw ratio), sheet CDK9 (CDK9–cyclin T; compound 9.46563 nM): 0.008363 and 0.009049
- Lanthascreen TR-FRET signal (raw ratio), sheet CDK9 (CDK9–cyclin T; compound 31.5521 nM): 0.005358 and 0.007058
- Lanthascreen TR-FRET signal (raw ratio), sheet CDK9 (CDK9–cyclin T; compound 99.3891 nM): 0.003738 and 0.004042
- Lanthascreen TR-FRET signal (raw ratio), sheet CDK9 (CDK9–cyclin T; compound 315.521 nM): 0.003575 and 0.004296
- Lanthascreen TR-FRET signal (raw ratio), sheet CDK9 (CDK9–cyclin T; compound 10002 nM): 0.002963 and 0.00293

Reference: article PMC10746543, “Design principles for cyclin K molecular glue degraders” (Nature Chemical Biology, 2023)
